Data reported in patent US20250263370A1 (Tay Therapeutics Limited, priority 2022, published 2025).
Entries after “also recorded” stand apart in the source; their conditions may differ. Like-named read-outs stand apart in the source and are kept apart here.

Assays:
CXCL10 = CXCL10 levels by ELISA in IFN-γ stimulated human peripheral blood mononuclear cells; assay type: cell-based; details: human PBMC
Procedure: The impact of Examples 23, 80, and 101 on IL-17A, IL-22, and CXCL10 levels was analyzed in cryopreserved human peripheral blood mononuclear cells (PBMC) by ELISA. […] For IL-17A and IL-22 assays, Examples 23, 80, and 101 were serially diluted from 10 mM in DMSO and further diluted in assay media to 100× the required final concentration, of which, 2 μL was added per well to a round-bottom 96-well tissue culture plate where the final DMSO concentration per well was 0.1%. CD2, CD3, and CD28 antibody-coated beads from the T-cell activation/expansion kit (Miltenyi Biotec) were added to the PBMC at a bead-to-cell ratio of 1:2.
(§1) The mixture of PBMCs and beads were seeded into the wells of the round-bottom 96-well plate at a concentration of 2×10^5 cells/well in a total volume of 200 μL. The cells were cultured for 72 hours at 37° C. and 5% CO2 and then supernatants were collected and IL-17A and IL-22 levels were measured by ELISA. For the CXCL10 assay, Examples 23, 80, and 101 were serially diluted from 10 mM in DMSO and further diluted in assay media to 100× the required final concentration, of which 2 μL was added per well to a 96-well tissue culture plate. The final compound concentration ranged from 30,000 nM to 0.005 nM and the final DMSO concentration per well was 0.3%. PBMCs were seeded at approximately 2×10^5 cells/well in the wells of the 96-well tissue culture plate in a total volume of 190 μL. The plate was incubated for 1 hour at 37° C. and 5% CO2. The cells were then stimulated with IFN-γ (15 ng/mL final concentration) in a volume of 10 μL. The cells were then cultured for 24 hours at 37° C. and 5% CO2. The supernatant was collected and CXCL10 levels were measured by ELISA.

[1] = tested on: collagen-induced arthritis; details: rat, in vivo
Procedure: Prior to be randomly placed in treatment groups, animals were weighed, and paw volume was measured. Once randomly assigned to treatment groups, on Day 0, animals in groups 2-9 were immunized by subcutaneous injection at the base of the tail.
The immunization comprised 100 μL of the CFA+Collagen emulsion (prepared according to the method in Experimental Method A). Animals in group one received no immunization. Seven days after the first injection, animals in groups 2-9 received a booster immunization comprising 200 μL of the IFA+Collagen emulsion (prepared according to the method in Experimental Method A).
Starting on Day 0, animals in group 1 and 2 were administered daily doses of the vehicle per os (P.O.) for 21 days. […] The twice daily doses for animals in groups 4-9 were 8 hours apart (e.g., the first dose at 8:00 AM and the second dose at 4:00 PM).
Body weight of all animals was recorded daily for the 21-day period. Blind clinical scores on all four limbs were conducted for all animals in the study. Animals were assessed prior to receiving their first dose of the compound or control, and scores for each limb were combined to a total daily score for each animal. Clinical score assessments were performed on Day 0, 6, 12, 13, 14, 15, 18, 19, and 21 (for a total of 9 daily scores).
Paw volume was recorded for each animal on Day 0, 6, 12, 13, 14, 15, 18, 19, and 21 (for a total of 9 measurements). To measure paw volume, animals were gently held with one hand while the hind paw was placed into a plethysmometer with the other hand. Lipid displacement by the paw was recorded and used to represent paw volume.
All data measured and recorded was analyzed using SPSS 16.0 software. Groups were compared using one-way ANOVA and significance was set at p<0.05.

IL-22 = IL-22 levels by ELISA in stimulated human peripheral blood mononuclear cells; assay type: cell-based; details: for IC50: Homo sapiens, PBMC
Procedure: CD2, CD3, and CD28 antibody-coated beads from the T-cell activation/expansion kit (Miltenyi Biotec) were added to the PBMC at a bead-to-cell ratio of 1:2.
as §1, with “For the CXCL10 assay, Examples 23, 80, and 101 were serially diluted from 10 mM in DMSO and further diluted in assay media to 100× the required final concentration, of which 2 μL was added per well to a 96-well tissue culture plate.” left out, “The cells were then stimulated with IFN-γ (15 ng/mL final concentration) in a volume of 10 μL.” left out

[2] = tested on: collagen-induced arthritis; assay: Histopathologic analysis of H&E-stained hind limbs of CIA rats; assay type: in vivo, Lewis rat; details: for Number of animals: Erosion/Ulcer, cartilaginous, Marked / Number of animals: Erosion/Ulcer, cartilaginous, Mild / Number of animals: Erosion/Ulcer, cartilaginous, Minimal / Number of animals: Erosion/Ulcer, cartilaginous, Moderate / Number of animals: Granulation tissue, Marked / Number of animals: Granulation tissue, Mild / Number of animals: Granulation tissue, Minimal / Number of animals: Granulation tissue, Moderate / Number of animals: Increased bone, periosteum, Marked / Number of animals: Increased bone, periosteum, Mild / Number of animals: Increased bone, periosteum, Minimal / Number of animals: Increased bone, periosteum, Moderate / Number of animals: Increased eroded surface, bone, Marked / Number of animals: Increased eroded surface, bone, Mild / Number of animals: Increased eroded surface, bone, Minimal / Number of animals: Increased eroded surface, bone, Moderate / Number of animals: Mixed cell inflammation, Marked / Number of animals: Mixed cell inflammation, Mild / Number of animals: Mixed cell inflammation, Minimal / Number of animals: Mixed cell inflammation, Moderate / Number of animals: No Visible Lesions: hind limbs, CIA induced, 8 animals examined
Excerpt: Hind limbs were collected following euthanasia, with the left limb being used for H&E staining.
H&E-stained slides of designated tissues from animals were transferred to an independent pathologist for microscopic evaluation (SPFBio). Samples were assigned the histologic grades based on the severity of change from tissue where CIA was not induced. Histology grades assigned were as follows: grade 1 (minimal change), grade 2 (mild change), grade 3 (moderate change), grade 4 (marked change), and grade 5 (severe change).
Moderate inflammation was also associated with increased edema fluid, fibrin, and cellular debris. Marked mixed cell inflammation was characterized by dense, widespread accumulations of neutrophils and macrophages with lesser number of lymphocytes within one or more joint spaces, synovium and periarticular soft tissues. Marked inflammation was also associated with abundant edema fluid, fibrin, and cellular debris.
Marked granulation tissue (pannus) was associated with inflammation and was characterized by widespread fibrovascular connective tissue that expanded/replaced the periarticular soft tissues of one or more joints, extended into/expanded joint spaces, was contiguous with areas of erosion/ulcer in articular cartilage and/or increased eroded surface of bone, and variably extended along the diaphysis.
Instances of minimal increased eroded surface were not associated with fragments of bone contiguous and/or surrounded by granulation tissue. […] In some areas, increased eroded surfaces were contiguous with areas of erosion/ulcer in the articular cartilages. Instance of marked increased eroded surface were often associated with fragments of bone contiguous with and/or surrounded by granulation tissue.
This observation was typically most pronounced at joint margins (transition zone). The ulceration was often associated with inflammation and granulation tissue extending through the defect to the subchondral bone.
Marked increased periosteal bone (periosteal bone formation) was characterized by extensive areas of increased bone matrix and numerous prominent osteoblasts lining trabecular surfaces along the metaphysis and/or diaphysis of one or more bones. In some areas, increased periosteal bone was contiguous with increased eroded surface and/or erosion/ulcer at articular cartilage.

[3] = CIA rats, 3 mg/kg (group 5), hind limb H&E
[4] = CIA rats, 10 mg/kg (group 6), hind limb H&E
[5] = CIA rats, 30 mg/kg (group 7), hind limb H&E

## CNC(=O)c1[nH]c(C(=O)NC2CCC2)cc1O[C@@H](C)c1ccccc1 (stereo in doubt) [Example 101, N^5-cyclobutyl-N^2-methyl-3-(1-phenylethoxy)-1H-pyrrole-2,5-dicarboxamide]
CXCL10
  selectivity to induction of CXCL10 relative to IL-17A and IL-22: showed selectivity to induction of CXCL10 relative to IL-17A and IL-22
CXCL10; IFN-γ, 24 hours
  IC50 for CXCL-10 relative to GSK620: substantially lower IC50
CXCL10; Test Subject 1, read-out: CXCL10 IC50
  IC50: > 30000 nM
CXCL10; Test Subject 2, read-out: CXCL10 IC50
  IC50: > 30000 nM
CXCL10; Test Subject 3, read-out: CXCL10 IC50
  IC50: > 30000 nM
CXCL10; mean of test subjects, read-out: CXCL10 IC50 Mean
  IC50: > 30000 nM
[1]; 10 mg/kg
  Clinical Observation: Diarrhea
[1]; 30 mg/kg
  Clinical Observation: Diarrhea
[1]; po, 3 mg/kg
  animals that gained weight by the end of the study: 7/8
  body weight over the course of the study: weight gain over the first 13 days of the study, similar to animals in groups 2 and 4, followed by weight loss over the remaining days
  diarrhea over the 21-day period: did not have diarrhea
  increase in body weight, day 21 compared to day 0: 1.7%
[1]; po, 10 mg/kg
  animals that either gained no weight or lost weight: 5/8
  animals that gained weight by the end of the study: 3/8
  animals that had diarrhea (for a single day) over the 21-day period: Two different animals
  body weight over the course of the study: modest weight gains over the first 10-11 days of the study, followed by weight loss
  body weight relative to CIA + vehicle (group 2): significantly decreased relative to group 2 on days 6-7 and 10-18 (p<0.01), and on days 9 and 19-21 (p<0.05)
  weight change, day 21 compared to day 0: approximately 0.5%
[1]; po, 30 mg/kg
  animals that either lost weight or gained no weight: 5/8
  animals that gained weight by the end of the study: 3/8
  animals that had diarrhea over the 21-day period: Four different animals
  body weight over the course of the study: modest weight gains over the first 10-11 days of the study, followed by weight loss
  body weight relative to CIA + vehicle (group 2): significantly decreased relative to group 2 on days 6-7 and 9-18 (p<0.01), and on days 5 and 19-21 (p<0.05)
  weight change, day 21 compared to day 0: approximately 0.5%
IL-22; Test Subject 1, read-out: IL-22 IC50
  IC50: 14.8 nM
IL-22; Test Subject 2, read-out: IL-22 IC50
  IC50: 26.9 nM
IL-22; Test Subject 3, read-out: IL-22 IC50
  IC50: 21.1 nM
IL-22; mean of test subjects, read-out: IL-22 IC50 Mean
  IC50: 20.9 nM
IL-22; human PBMC, 72 hours
  IC50 for IL-22 relative to GSK620: substantially lower IC50
IL-22; human PBMC, from mean IC50
  Biomarker selectivity (IL-22 vs. CXCL10): >1433 Fold
[2]; 3 mg/kg
  Number of animals: Erosion/Ulcer, cartilaginous, Marked: 0
  Number of animals: Erosion/Ulcer, cartilaginous, Mild: 2
  Number of animals: Erosion/Ulcer, cartilaginous, Minimal: 0
  Number of animals: Erosion/Ulcer, cartilaginous, Moderate: 6
  Number of animals: Granulation tissue, Marked: 0
  Number of animals: Granulation tissue, Mild: 1
  Number of animals: Granulation tissue, Minimal: 0
  Number of animals: Granulation tissue, Moderate: 7
  Number of animals: Increased bone, periosteum, Marked: 0
  Number of animals: Increased bone, periosteum, Mild: 7
  Number of animals: Increased bone, periosteum, Minimal: 0
  Number of animals: Increased bone, periosteum, Moderate: 1
  Number of animals: Increased eroded surface, bone, Marked: 0
  Number of animals: Increased eroded surface, bone, Mild: 5
  Number of animals: Increased eroded surface, bone, Minimal: 0
  Number of animals: Increased eroded surface, bone, Moderate: 3
  Number of animals: Mixed cell inflammation, Marked: 1
  Number of animals: Mixed cell inflammation, Mild: 0
  Number of animals: Mixed cell inflammation, Minimal: 0
  Number of animals: Mixed cell inflammation, Moderate: 7
  Number of animals: No Visible Lesions: 0
[2]; 10 mg/kg
  Number of animals: Erosion/Ulcer, cartilaginous, Marked: 0
  Number of animals: Erosion/Ulcer, cartilaginous, Mild: 3
  Number of animals: Erosion/Ulcer, cartilaginous, Minimal: 1
  Number of animals: Erosion/Ulcer, cartilaginous, Moderate: 3
  Number of animals: Granulation tissue, Marked: 0
  Number of animals: Granulation tissue, Mild: 3
  Number of animals: Granulation tissue, Minimal: 0
  Number of animals: Granulation tissue, Moderate: 3
  Number of animals: Increased bone, periosteum, Marked: 0
  Number of animals: Increased bone, periosteum, Mild: 4
  Number of animals: Increased bone, periosteum, Minimal: 1
  Number of animals: Increased bone, periosteum, Moderate: 2
  Number of animals: Increased eroded surface, bone, Marked: 0
  Number of animals: Increased eroded surface, bone, Mild: 2
  Number of animals: Increased eroded surface, bone, Minimal: 2
  Number of animals: Increased eroded surface, bone, Moderate: 3
  Number of animals: Mixed cell inflammation, Marked: 2
  Number of animals: Mixed cell inflammation, Mild: 2
  Number of animals: Mixed cell inflammation, Minimal: 1
  Number of animals: Mixed cell inflammation, Moderate: 3
  Number of animals: No Visible Lesions: 0
[2]; 30 mg/kg
  Number of animals: Erosion/Ulcer, cartilaginous, Marked: 0
  Number of animals: Erosion/Ulcer, cartilaginous, Mild: 4
  Number of animals: Erosion/Ulcer, cartilaginous, Minimal: 1
  Number of animals: Erosion/Ulcer, cartilaginous, Moderate: 0
  Number of animals: Granulation tissue, Marked: 0
  Number of animals: Granulation tissue, Mild: 1
  Number of animals: Granulation tissue, Minimal: 2
  Number of animals: Granulation tissue, Moderate: 4
  Number of animals: Increased bone, periosteum, Marked: 0
  Number of animals: Increased bone, periosteum, Mild: 2
  Number of animals: Increased bone, periosteum, Minimal: 1
  Number of animals: Increased bone, periosteum, Moderate: 0
  Number of animals: Increased eroded surface, bone, Marked: 0
  Number of animals: Increased eroded surface, bone, Mild: 4
  Number of animals: Increased eroded surface, bone, Minimal: 0
  Number of animals: Increased eroded surface, bone, Moderate: 0
  Number of animals: Mixed cell inflammation, Marked: 0
  Number of animals: Mixed cell inflammation, Mild: 3
  Number of animals: Mixed cell inflammation, Minimal: 0
  Number of animals: Mixed cell inflammation, Moderate: 4
  Number of animals: No Visible Lesions: 1
[2]; CIA rats, 3 mg/kg (group 5)
  samples with pathologic observations: All samples
[2]; [3]
  erosion/ulcer in articular cartilage: mild to moderate
  granulation tissue (pannus): mild and mild to moderate
  increased eroded surface of bone (bone resorption): mild to moderate
  increased periosteal bone (periosteal bone formation): mild to moderate
  mixed cell inflammation: moderate to marked
[2]; CIA rats, 10 mg/kg (group 6)
  samples with pathologic observations: All samples
[2]; [4]
  erosion/ulcer in articular cartilage: mild and moderate
  granulation tissue (pannus): mild and moderate
  increased eroded surface of bone (bone resorption): mild and moderate
  increased periosteal bone (periosteal bone formation): minimal; also recorded: moderate
  mixed cell inflammation: moderate
[2]; CIA rats, 30 mg/kg (group 7)
  samples with no recorded pathological observations: One out of eight
[2]; [5]
  erosion in the articular cartilages: mild
  granulation tissue (pannus): mild and moderate
  increased eroded surface of bone (bone resorption): mild
  increased periosteal bone (periosteal bone formation): mild
  mixed cell inflammation: mild and moderate
[2]; CIA rats, 3, 10 and 30 mg/kg (Groups 5-7)
  pathologic observations after microscopic evaluation, overall: at lower levels relative to samples from animals in the CIA-induced group (Group 2) in a dose-dependent manner
